Activity calls are given as the source filed them. The rule behind the calls is not given here.
Columns and labels:
Candida albicans [1] = test: Antifungal activity against Candida albicans ATCC 10231 assessed as reduction in fungal growth incubated for 48 hrs by broth microdilution method; assay type: functional
Pichia kudriavzevii [2] = test: Antifungal activity against Candida krusei ATCC 34135 assessed as reduction in fungal growth incubated for 48 hrs by broth microdilution method; assay type: functional
Candida albicans [3] = test: Antifungal activity against Candida albicans isolate 2 assessed as reduction in fungal growth incubated for 48 hrs by broth microdilution method; assay type: functional
Candida albicans [4] = test: Antifungal activity against Candida albicans isolate 7 assessed as reduction in fungal growth incubated for 48 hrs by broth microdilution method; assay type: functional
Candida albicans [5] = test: Antifungal activity against Candida albicans isolate 8 assessed as reduction in fungal growth incubated for 48 hrs by broth microdilution method; assay type: functional
Candida albicans [6] = test: Antifungal activity against Candida albicans isolate 13 assessed as reduction in fungal growth incubated for 48 hrs by broth microdilution method; assay type: functional
Candida albicans [7] = test: Fungicidal activity against Candida albicans ATCC 18804 assessed as fungal killing incubated for 48 hrs followed by plating on SD agar plate; assay type: functional; conditions: read-out: MFC99.9
Candida albicans [8] = test: Fungicidal activity against Candida albicans ATCC 10231 assessed as fungal killing incubated for 48 hrs followed by plating on SD agar plate; assay type: functional; conditions: read-out: MFC99.9
Nakaseomyces glabratus [9] = test: Fungicidal activity against Candida glabrata ATCC 2001 assessed as fungal killing incubated for 48 hrs followed by plating on SD agar plate; assay type: functional; conditions: read-out: MFC99.9
Pichia kudriavzevii [10] = test: Fungicidal activity against Candida krusei ATCC 34135 assessed as fungal killing incubated for 48 hrs followed by plating on SD agar plate; assay type: functional; conditions: read-out: MFC99.9
Candida tropicalis [11] = test: Fungicidal activity against Candida tropicalis ATCC 28707 assessed as fungal killing incubated for 48 hrs followed by plating on SD agar plate; assay type: functional; conditions: read-out: MFC99.9
Candida albicans [12] = test: Fungicidal activity against Candida albicans isolate 4 assessed as fungal killing incubated for 48 hrs followed by plating on SD agar plate; assay type: functional; conditions: read-out: MFC99.9
Candida albicans [13] = test: Fungicidal activity against Candida albicans isolate 5 assessed as fungal killing incubated for 48 hrs followed by plating on SD agar plate; assay type: functional; conditions: read-out: MFC99.9
Candida albicans [14] = test: Fungicidal activity against Candida albicans isolate 9 assessed as fungal killing incubated for 48 hrs followed by plating on SD agar plate; assay type: functional; conditions: read-out: MFC99.9
Candida albicans [15] = test: Fungicidal activity against Candida albicans isolate 11 assessed as fungal killing incubated for 48 hrs followed by plating on SD agar plate; assay type: functional; conditions: read-out: MFC99.9
Candida albicans [16] = test: Fungicidal activity against Candida albicans ATCC 10231 assessed as reduction in fungal load at 7.8 ug/ml incubated for 4 hrs followed by inoculation on SD agar plate for 48 hrs by time-kill assay; assay type: functional; conditions: dose 7.8 µg/ml; time 52 hrs
Candida tropicalis [17] = test: Disruption of cell membrane in Candida tropicalis ATCC 28707 assessed as increase in intracellular leakage at MIC incubated for 24 hrs by UV spectrophotometric analysis; assay type: cell-based
Candida albicans [18] = test: Disruption of cell membrane in Candida albicans ATCC 10231 assessed as increase in number of invagination at 2 times of MIC incubated for 1 hr by SEM analysis
Candida albicans [19] = test: Antifungal activity against Candida albicans ATCC 10231 assessed as reduction in fungal growth incubated for 48 hrs in presence of sorbitol by broth microdilution method; assay type: functional
Nakaseomyces glabratus [20] = test: Antifungal activity against Candida glabrata ATCC 2001 assessed as reduction in fungal growth incubated for 48 hrs in presence of ergosterol by broth microdilution method; assay type: functional
Nakaseomyces glabratus [21] = test: Antifungal activity against Candida glabrata ATCC 2001 assessed as reduction in fungal growth incubated for 48 hrs in presence of sorbitol by broth microdilution method; assay type: functional
Candida tropicalis [22] = test: Antifungal activity against Candida tropicalis ATCC 28707 assessed as reduction in fungal growth incubated for 48 hrs in presence of ergosterol by broth microdilution method; assay type: functional
Candida albicans [23] = test: Antibiofilm activity against Candida albicans ATCC 10231 assessed as reduction in mature biofilm incubated for 48 hrs by crystal violet staining based spectrophotometric analysis relative to control; assay type: functional, organism-based; conditions: dose 0.48-125 µg/ml
[24] = Toxicity in Swiss mouse assessed as body weight at 1 mg/kg, ip measured after 24 hrs (reference value: 36.25 +/- 0.31 g); assay type: organism-based; conditions: in vivo
[25] = Toxicity in Swiss mouse assessed as relative lung weight at 10 mg/kg, ip measured after 24 hrs (reference value: 6.35 +/- 0.68 g); assay type: organism-based; conditions: in vivo
[26] = Toxicity in Swiss mouse assessed as relative kidney weight at 0.5 mg/kg, ip measured after 24 hrs (reference value: 14.91 +/- 0.99 g); assay type: organism-based; conditions: in vivo
[27] = Toxicity in Swiss mouse assessed as relative kidney weight at 3 mg/kg, ip measured after 24 hrs (reference value: 14.91 +/- 0.99 g); assay type: organism-based; conditions: in vivo
[28] = Toxicity in Swiss mouse assessed as relative kidney weight at 20 mg/kg, ip measured after 24 hrs (reference value: 14.91 +/- 0.99 g); assay type: organism-based; conditions: in vivo
[29] = Toxicity in Swiss mouse assessed as relative spleen weight at 0.5 mg/kg, ip measured after 24 hrs (reference value: 4.02 +/- 0.59 g); assay type: organism-based; conditions: in vivo
[30] = Toxicity in Swiss mouse assessed as relative spleen weight at 10 mg/kg, ip measured after 24 hrs (reference value: 4.02 +/- 0.59 g); assay type: organism-based; conditions: in vivo
[31] = Toxicity in Swiss mouse assessed as relative spleen weight at 20 mg/kg, ip measured after 24 hrs (reference value: 4.02 +/- 0.59 g); assay type: organism-based; conditions: in vivo
[32] = Toxicity in Swiss mouse assessed as relative heart weight at 1 mg/kg, ip measured after 24 hrs (reference value: 4.75 +/- 0.60 g); assay type: organism-based; conditions: in vivo
[33] = Toxicity in Swiss mouse assessed as relative heart weight at 3 mg/kg, ip measured after 24 hrs (reference value: 4.75 +/- 0.60 g); assay type: organism-based; conditions: in vivo
[34] = Toxicity in Swiss mouse assessed as relative liver weight at 1 mg/kg, ip measured after 24 hrs (reference value: 49.42 +/- 7.17 g); assay type: organism-based; conditions: in vivo
[35] = Toxicity in Swiss mouse assessed as signs of toxicity at 0.5 to 10 mg/kg, ip measured upto 4 hrs; assay type: organism-based; conditions: in vivo, dose 0.5-10 mg/kg
[36] = Toxicity in Swiss mouse assessed as effect on liver at 0.5 to 10 mg/kg, ip measured after 24 hrs by macroscopic analysis; assay type: organism-based; conditions: in vivo, dose 0.5-10 mg/kg
[37] = Toxicity in Swiss mouse infected with Candida albicans ATCC 10231 assessed as effect on kidney weight at 10 mg/kg, ip administered at 2, 24 and 48 hrs post-infection and measured at 24 hrs after last dose; assay type: organism-based; conditions: in vivo, 72 h
[38] = Toxicity in Swiss mouse infected with Candida albicans ATCC 10231 assessed as effect on kidney at 10 mg/kg, ip administered at 2, 24 and 48 hrs post-infection and measured at 24 hrs after last dose by macroscopic analysis; assay type: organism-based; conditions: in vivo, 72 h

For [Cl-].[N-]=[N+]=NCCCCCCCCCCCCOCCCc1ccc[n+](Cc2ccccc2)c1, the MIC (Candida albicans [1]) was 7.8 µg/mL, the MIC (Pichia kudriavzevii [2]) was 3.9 µg/mL and the MIC (Candida albicans [3]) was 7.8 µg/mL. It also gave an MIC (Candida albicans [4]) of 1.95 µg/mL, an MIC (Candida albicans [5]) of 3.9 µg/mL and an MIC (Candida albicans [6]) of 7.8 µg/mL. For the same compound, the MFC (Candida albicans [7]) was 31.2 µg/mL, the MFC (Candida albicans [8]) was 7.8 µg/mL and the MFC (Nakaseomyces glabratus [9]) was 7.8 µg/mL. The MFC (Pichia kudriavzevii [10]) was 7.8 µg/mL, the MFC (Candida tropicalis [11]) was 15.6 µg/mL and the MFC (Candida albicans [12]) was 1.95 µg/mL. For the same compound, the MFC (Candida albicans [13]) was 7.8 µg/mL, the MFC (Candida albicans [14]) was 31.2 µg/mL and the MFC (Candida albicans [15]) was 7.8 µg/mL. The “log(activity)” value (Candida albicans [16]) was 3, the Activity (Candida tropicalis [17]) was “Active” and the Activity (Candida albicans [18]) was “Active”. The MIC (Candida albicans [19]) was 7.8 µg/mL, the MIC (Nakaseomyces glabratus [20]) was 7.8 µg/mL and the MIC (Nakaseomyces glabratus [21]) was 7.8 µg/mL. The MIC (Candida tropicalis [22]) was 15.6 µg/mL, the Activity (Candida albicans [23]) was “Dose-dependent effect” and the Activity [24] was 37.87 g. The Activity [25] was 6.01 g, the Activity [26] was 14.41 g and the Activity [27] was 14.73 g. For the same compound, the Activity [28] was 15.79 g, the Activity [29] was 3.85 g and the Activity [30] was 2.85 g. It also gave an Activity [31] of 2.93 g, an Activity [32] of 5.39 g and an Activity [33] of 4.45 g. The Activity [34] was 44.68 g, the Activity [35] was “Non-Toxic” and the Activity [36] was “Non-Toxic”. For the same compound, the Activity [37] was “Non-Toxic” and the Activity [38] was “Non-Toxic”.
